Earlier results as cited in patent publication US20090169619A1, “CARBAMAZEPINE EXTENDED RELEASE DOSAGE FORM” (CorePharma LLC, priority 2005, published 2009).

## NC(=O)N1c2ccccc2C=Cc2ccccc21 [Carbamazepine, 5H-Dibenz[b,f]azepine-5-carboxamide]
  solubility in water: poor solubility
